# Results taken from the supplement of paper PMC10307832.
# Tests used:
# Experiment in all cases: relative viability (nuclei count vs DMSO), 5 days (fraction); higher = more cells survive
# [1] = compound: C1=CC=C2C(=C1)N=C(S2)C(C#N)C3=NC(=NC=C3)NCCC4=CN=CC=C4 + Cc1cc(Nc2cc(N3CCN(C)CC3)nc(Sc3ccc(NC(=O)C4CC4)cc3)n2)n[nH]1 [Tozasertib] (partner 0.1 µM)
# In short: (§1)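 Relative viability was taken as the ratio of nuclei in treated wells to nuclei in vehicle wells. Lung cancer cell lines in 1536-well plates received compounds by pin tool one day after seeding, either one drug alone or a fixed anchor-drug dose plus five library-drug doses (not always all listed) in √10 steps. Nuclei were counted on 4× images after 5 days of treatment, and values are medians of duplicate plates.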
# [2] = compound: COc1cc(N2CCC(N3CCN(C)CC3)CC2)ccc1Nc1ncc(Cl)c(Nc2ccccc2S(=O)(=O)C(C)C)n1 [NVP-TAE684] + COc1cccc2cc(-c3nc([C@H]4CC[C@H](C(=O)O)CC4)n4ncnc(N)c34)[nH]c12 [OSI-027] (partner 0.5 µM)
# In short: as §1
# [3] = compound: COc1cc(N2CCC(N3CCN(C)CC3)CC2)ccc1Nc1ncc(Cl)c(Nc2ccccc2S(=O)(=O)C(C)C)n1 [NVP-TAE684] + C[C@]1(O)C[C@@H](c2nc(-c3ccc4ccc(-c5ccccc5)nc4c3)c3c(N)nccn32)C1 [Linsitinib] (partner 1 µM)
# In short: as §1
# [4] = compound: COc1cc2/c(=N/c3ccc(Br)cc3F)nc[nH]c2cc1OCC1CCN(C)CC1 [Vandetanib] + Nc1ncn([C@H]2C[C@H](O)[C@@H](CO)O2)c(=O)n1 [Decitabine] (partner 2 µM)
# In short: as §1
Cell Line,relative viability ([1]; first compound 0.005 µM),relative viability ([1]; first compound 0.01581 µM),relative viability ([1]; first compound 0.1581 µM),relative viability ([1]; first compound 0.5 µM),relative viability ([2]; first compound 0.2 µM),relative viability ([2]; first compound 0.6325 µM),relative viability ([2]; first compound 2 µM),relative viability ([3]; first compound 0.2 µM),relative viability ([3]; first compound 0.6325 µM),relative viability ([3]; first compound 2 µM),relative viability ([4]; first compound 0.02 µM),relative viability ([4]; first compound 0.06325 µM),relative viability ([4]; first compound 0.2 µM),relative viability ([4]; first compound 0.6325 µM),relative viability ([4]; first compound 2 µM),relative viability ([1]; first compound 0.05 µM)
SW 1573,0.174,0.179,0.175,0.156,0.741,0.455,0.226,0.907,0.692,0.795,0.467,0.481,0.594,0.508,0.393,–
NCI-H3122,0.46,0.419,0.386,0.344,0.173,0.127,0.154,0.266,0.222,0.184,0.454,0.39,0.178,0.456,0.481,0.433
NCI-H661,0.365,0.332,0.355,0.392,0.717,0.821,0.585,0.454,0.58,0.625,0.536,0.556,0.527,0.46,0.446,0.342
NCI-H441,–,0.715,0.759,0.531,0.581,0.626,0.379,0.521,0.627,0.472,0.243,0.22,0.222,0.277,0.217,0.633
NCI-H596,0.774,1,0.917,0.853,0.903,0.689,0.509,1.06,–,0.688,0.986,0.98,0.983,0.979,0.978,0.81
PC-3 [JPC-3],0.661,0.927,0.791,0.706,0.686,0.759,–,0.96,0.934,0.843,0.876,0.847,0.72,0.661,0.488,0.866
NCI-H1993,0.625,0.657,0.608,0.577,0.494,0.466,0.593,–,0.66,0.658,0.674,0.645,0.628,0.637,0.541,0.521
NCI-H1355,0.445,0.516,0.594,0.385,0.423,0.325,0.273,0.724,0.826,0.535,0.351,0.357,0.369,0.339,0.363,0.463
NCI-H23,0.634,0.304,0.301,0.343,0.666,0.544,0.236,0.533,0.584,0.509,0.358,0.328,0.346,0.293,0.325,0.35
ABC-1,0.202,0.196,0.152,0.184,0.393,0.419,0.179,0.825,0.742,0.358,1.14,1.04,1.13,1.4,0.833,0.169
HCC-44,0.949,–,0.927,0.548,0.525,0.428,0.218,0.785,0.674,0.482,0.999,0.992,0.949,0.897,0.973,0.883
NCI-H1755,0.448,0.544,0.598,0.584,0.636,0.672,0.453,1.05,1.05,–,0.71,0.678,0.709,0.763,0.623,0.563
SK-LU-1,0.293,0.344,0.309,0.299,0.31,0.37,0.181,1.19,1.2,0.693,0.605,0.562,0.658,0.612,0.654,0.33
NCI-H2126,0.709,0.837,0.934,0.681,0.603,0.631,0.493,0.701,0.684,0.688,0.537,0.551,0.592,0.576,0.552,0.823
NCI-H650,0.633,–,0.742,0.644,0.441,0.458,0.332,0.982,0.638,0.652,0.354,0.324,0.322,0.351,0.329,0.708
201T,0.788,0.964,0.929,0.837,0.762,0.732,0.474,1.1,–,0.925,0.831,0.828,0.859,0.85,0.797,0.941
LU99A,0.258,0.247,0.278,0.214,0.319,0.265,0.239,0.614,0.558,0.445,0.804,0.828,0.676,0.834,0.771,0.224
NCI-H647,0.315,0.342,0.292,0.151,0.692,0.58,0.417,1.49,1.09,0.522,0.356,0.396,0.349,0.35,0.41,0.289
LC-2-ad,0.358,0.433,0.449,0.437,0.804,0.673,0.317,0.842,0.771,0.218,0.707,0.729,0.89,0.836,0.616,0.405
LK-2,0.171,0.186,0.174,0.184,0.178,0.17,0.168,0.708,0.659,0.623,0.307,0.293,0.317,0.315,0.271,0.164
NCI-H520,0.406,0.431,0.376,0.421,0.281,0.287,0.199,0.911,0.986,0.45,0.496,0.483,0.429,0.495,0.502,0.467
NCI-H1975,0.458,0.741,0.878,0.203,0.732,0.594,0.341,1.01,0.97,0.269,0.399,0.401,0.422,0.419,0.387,0.635
